What was measured:
[1] = molecular target: T1, AgWH2A (Agarivorans gilvus, UniProt A0A2Z4WWH8); test: TLC of products; type: biochemical; conditions: 10 mM potassium phosphate pH 7.5, 30°C, 4 h; positive control enzyme
T1 construct: gene lacZ; pET29a (SalI/XhoI), E. coli BL21(DE3) pLysS, Ni-NTA (vector tags kept)
T1 sequence (A0A2Z4WWH8 1-753): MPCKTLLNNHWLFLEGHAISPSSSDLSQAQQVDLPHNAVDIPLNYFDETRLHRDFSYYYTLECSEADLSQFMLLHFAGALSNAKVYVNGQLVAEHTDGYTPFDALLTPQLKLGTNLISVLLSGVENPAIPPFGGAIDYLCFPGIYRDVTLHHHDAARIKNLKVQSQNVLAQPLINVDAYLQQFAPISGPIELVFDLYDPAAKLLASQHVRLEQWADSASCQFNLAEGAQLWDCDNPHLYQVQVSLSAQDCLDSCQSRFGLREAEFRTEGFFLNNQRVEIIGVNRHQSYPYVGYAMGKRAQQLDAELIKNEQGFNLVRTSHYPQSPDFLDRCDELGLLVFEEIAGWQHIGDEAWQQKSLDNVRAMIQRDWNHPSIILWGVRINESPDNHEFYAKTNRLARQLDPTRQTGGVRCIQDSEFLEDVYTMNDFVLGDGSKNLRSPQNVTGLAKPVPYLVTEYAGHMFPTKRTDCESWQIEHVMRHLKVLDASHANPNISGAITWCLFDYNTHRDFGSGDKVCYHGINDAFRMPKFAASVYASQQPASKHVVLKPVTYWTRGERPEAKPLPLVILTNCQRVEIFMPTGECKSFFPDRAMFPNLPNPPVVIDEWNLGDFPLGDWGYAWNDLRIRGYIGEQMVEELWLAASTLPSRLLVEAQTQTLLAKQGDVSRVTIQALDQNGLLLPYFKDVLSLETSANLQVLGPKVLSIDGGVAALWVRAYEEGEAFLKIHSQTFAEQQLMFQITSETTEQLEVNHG

[2] = tested on: T2, CL4994; test: agarotriose consumption, non-linear regression; type: biochemical, Cohnella sp. LGH; conditions: 10 mM potassium phosphate pH 7.0, 30°C, 10 min, 0.5–7.5 mg/ml substrate
T2 construct: pET29a (KpnI/XhoI), E. coli BL21(DE3) pLysS, Ni-NTA (vector tags kept); GH2

[3] = tested on: T3, CL5012; test: L-AHG release, non-linear regression; type: biochemical, Cohnella sp. LGH; conditions: 10 mM Tris-HCl pH 8.0, 35°C, 10 min, 0.5–7.5 mg/ml substrate
T3 construct: pET29a (NdeI/XhoI), E. coli BL21(DE3) pLysS, Ni-NTA (C-terminal His tag likely); GH117

| SMILES | TLC of products [1] | Km [2] | Km [3] |
| --- | --- | --- | --- |
| OC[C@H]1O[C@@H](O[C@H]2[C@H]3OC[C@@H]2O[C@@H](O[C@H]2[C@@H](O)[C@@H](CO)OC(O)[C@@H]2O)[C@H]3O)[C@H](O)[C@@H](O)[C@H]1O (stereo partly drawn) [agarotriose] | depolymerization products of agarotriose by the reported ABG AgWH2A | 3.90 mg ml^–1 | – |
| OC[C@H]1OC(O)[C@H](O)[C@@H](O[C@@H]2O[C@H]3CO[C@@H]([C@@H]2O)[C@@H]3O)[C@H]1O (stereo partly drawn) [neoagarobiose] | – | – | 4.45 mg ml^–1 |

From publication PMC9008576, “Characterization of Agarolytic Pathway in a Terrestrial Bacterium Cohnella sp. LGH” (Frontiers in Microbiology, 2022)
